Measurements reported in patent US20250282735A1, “BICYCLE COMPOUNDS AS TEAD INHIBITOR” (DONG-A ST CO., LTD., priority 2022, published 2025).

What was measured:
Type in all cases: cell-based
NCI-H226 cells = assay: Proliferation assay (EdU incorporation), NCI-H226; conditions: Homo sapiens, 72 h, YAP-driven NCI-H226 (NF2 mutation), 3 days with inhibitor, 1% serum
Method: (§1) The anti-proliferative activity of TEAD inhibitors was evaluated in cells with different properties for YAP; “YAP-driven” cells (MSTO-211H, NCI-H226) in which YAP located in the nucleus and “YAP-independent” cells (OCM1, NCI-H28) where YAP located in the cytoplasm. […] TEAD inhibitors were evaluated with cell lines with these YAP profiling and mutational status.
(§2) The next day, replace it with cell starvation medium containing 1% serum. After one day of growth in the starvation medium, the cells were incubated for 3 days with TEAD inhibitors in a concentration range of 0.01-10 μM. After 3 days, EdU (Invitrogen) at a concentration of 10 µM was added to the starvation medium and incubated for an additional 24 hours. After removing the starvation medium remaining in each well, wash the wells with PBS. Cells were fixed with 4% paraformaldehyde (Electron microscopy sciences) at room temperature for 20 minutes. After removing the fix solution remaining in each well, wash the wells with PBS and the cells were permeabilized for 40 minutes by adding 0.5% triton X-100 (Sigma Aldrich). After removing the permeabilization solution remaining in each well, the EdU labeling was performed according to the instructions of the manufacturer's instructions (Click-iT™ Cell Reaction Buffer Kit, Invitrogen). After the Click reaction for EdU labeling, nuclei were stained with […] (Thermo Scientific) for total cell count analysis. After plate preparation for detection, Image acquisition was performed using the ImageXpress Micro XLS. The acquired images were analyzed using MetaXpress software (molecular devices). Through this experimental method, it was possible to confirm the inhibitory activity of TEAD inhibitors by detection EdU incorporated into proliferating cells.
(§3) IC50 for cell proliferation inhibition activity are shown in the Table 2 below and designated within the following ranges. [+++: ≤0.1 μM, ++: >0.1 μM to ≤1 μM, +: >1 μM to ≤10μ, −: >10 μM]

MSTO-211H cells = assay: Proliferation assay (EdU incorporation), MSTO-211H; conditions: Homo sapiens, 72 h, YAP-driven MSTO-211H (LATS1 mutation), 3 days with inhibitor, 1% serum
Method: as §1, §2, §3

[1] = tested on: TEAD reporter-containing human breast cancer cell line MCF7; assay: TEAD reporter (luciferase) assay; conditions: TEAD reporter MCF7 cells, 24 hours treatment, 1% serum media
Method: The TEAD reporter-containing human breast cancer cell line MCF7 (60618, BPS bioscience) was cultured according to the manufacturer's instructions. Cells were plated in 96-well white plates at a density of 30,000 per well and incubated overnight. The following day cells were treated with small molecules in 1% serum media (0.1% v/v DMSO). After 24 hours of the treatment, cell viability was evaluated by using CCK-8 reagent (CK04, Dojindo) and measuring absorbance at 450 nm. Then, the assay for luciferase activity was performed using Dual-Glo® Luciferase Assay System (Promega, E2940) following the manufacturer's instructions. Luminescence intensity was measured and the potency of the compounds was determined by IC50 value generated from non-linear regression analysis of the dose-response curves.
IC50 for luciferase activity are shown in the Table 1 below and designated within the following ranges. [+++: ≤0.1 μM, ++: >0.1 μM to ≤1 μM, +: >1 μM to ≤10 μM, −: >10 μM]

Row | Structure (SMILES) | IC50 (NCI-H226 cells) [µM] | IC50 (MSTO-211H cells) [µM] | IC50 [1] [µM]
1 | C=CC(=O)Nc1cnc2c(c1)c(/C=C/c1ccc(F)cc1)cn2C [Compound 47, (E)-N-(3-(4-Fluorostyryl)-1-methyl-1H-pyrrolo[2,3-b]pyridin-5-yl)acrylamide] | ≤ 0.1 | ≤ 0.1 | –
2 | C=CC(=O)Nc1cnc2c(c1)c(/C=C/C1CCC(F)(F)CC1)cn2C(C)C [Compound 19, (E)-N-(3-(2-(4,4-Difluorocyclohexyl)vinyl)-1-isopropyl-1H-pyrrolo[2,3-b]pyridin-5-yl)acrylamide] | ≤ 0.1 | 0.1 to 1 | ≤ 0.1
3 | C=CC(=O)Nc1ccc2c(c1)c(/C=C/c1ccc(Cl)cc1)cn2C [Compound 22, (E)-N-(3-(4-Chlorostyryl)-1-methyl-1H-indol-5-yl)acrylamide] | 0.1 to 1 | 0.1 to 1 | 0.1 to 1
4 | C=CC(=O)Nc1ccc2c(c1)c(/C=C/C1CCC(F)(F)CC1)cn2CC [Compound 25, (E)-N-(3-(2-(4,4-Difluorocyclohexyl)vinyl)-1-ethyl-1H-indol-5-yl)acrylamide] | 0.1 to 1 | ≤ 0.1 | ≤ 0.1
5 | C=CC(=O)Nc1cnc2c(c1)c(-c1ccc(Cl)c(F)c1)cn2C [Example 87, N-(3-(4-Chloro-3-fluorophenyl)-1-methyl-1H-pyrrolo[2,3-b]pyridin-5-yl)acrylamide] | ≤ 0.1 | ≤ 0.1 | 0.1 to 1
6 | C=CC(=O)Nc1cnc2c(c1)c(-c1ccc(Cl)cc1)cn2C [Example 98, N-(3-(4-Chlorophenyl)-1-methyl-1H-pyrrolo[2,3-b]pyridin-5-yl)acrylamide] | ≤ 0.1 | ≤ 0.1 | 1 to 10
7 | C=CC(=O)Nc1cnc2c(c1)c(/C=C/C1CCC(F)(F)CC1)cn2C(F)F [Example 130, (E)-N-(3-(2-(4,4-Difluorocyclohexyl)vinyl)-1-(difluoromethyl)-1H-pyrrolo[2,3-b]pyridin-5-yl)acrylamide] | – | 0.1 to 1 | 0.1 to 1
8 | C=CC(=O)Nc1cnc2c(c1)c(/C=C/C1CCC(F)(F)CC1)cn2C [Compound 15, (E)-N-(3-(2-(4,4-Difluorocyclohexyl)vinyl)-1-methyl-1H-pyrrolo[2,3-b]pyridin-5-yl)acrylamide] | ≤ 0.1 | ≤ 0.1 | ≤ 0.1
9 | C=CC(=O)Nc1cnc2c(c1)c(CCC1CCC(F)(F)CC1)cn2C [Example 64, N-(3-(2-(4,4-Difluorocyclohexyl)ethyl)-1-methyl-1H-pyrrolo[2,3-b]pyridin-5-yl)acrylamide] | – | ≤ 0.1 | ≤ 0.1
10 | C=CC(=O)Nc1cnc2c(c1)c(/C=C/C1CCC(F)(F)CC1)nn2C(C)C [Compound 34, (E)-N-(3-(2-(4,4-Difluorocyclohexyl)vinyl)-1-isopropyl-1H-pyrazolo[3,4-b]pyridin-5-yl)acrylamide] | – | 0.1 to 1 | ≤ 0.1
11 | C=CC(=O)Nc1cnc2c(c1)c(-c1ccc(C3CC3)cc1)cn2C [Example 106, N-(3-(4-Cyclopropylphenyl)-1-methyl-1H-pyrrolo[2,3-b]pyridin-5-yl)acrylamide] | – | ≤ 0.1 | 0.1 to 1
12 | C=CC(=O)Nc1cnc2c(c1)c(-c1ccc(SCC)cc1)cn2C [Example 111, N-(3-(4-(Ethylthio)phenyl)-1-methyl-1H-pyrrolo[2,3-b]pyridin-5-yl)acrylamide] | – | ≤ 0.1 | 0.1 to 1
13 | C=CC(=O)Nc1cnc2c(c1)c(/C=C/C1CCC(F)(F)CC1)nn2CC [Compound 32, (E)-N-(3-(2-(4,4-Difluorocyclohexyl)vinyl)-1-ethyl-1H-pyrazolo[3,4-b]pyridin-5-yl)acrylamide] | – | 0.1 to 1 | ≤ 0.1
14 | C=CC(=O)Nc1cnc2c(c1)c(/C=C/c1ccc(Cl)cc1)nn2C(C)C [Compound 35, (E)-N-(3-(4-Chlorostyryl)-1-isopropyl-1H-pyrazolo[3,4-b]pyridin-5-yl)acrylamide] | – | 0.1 to 1 | 0.1 to 1
15 | C=CC(=O)Nc1cnc2c(c1)c(-c1ccc(Cl)cc1)cn2C(F)F [Example 132, N-(3-(4-Chlorophenyl)-1-(difluoromethyl)-1H-pyrrolo[2,3-b]pyridin-5-yl)acrylamide] | – | 0.1 to 1 | 1 to 10
16 | Cn1cc(/C=C/c2ccc(Cl)cc2)c2cc(NC(=O)CCl)cnc21 [Example 70, (E)-2-Chloro-N-(3-(4-chlorostyryl)-1-methyl-1H-pyrrolo[2,3-b]pyridin-5-yl) acetamide] | – | 1 to 10 | 1 to 10
17 | C=CC(=O)Nc1cnc2c(c1)c(-c1ccc(C(F)(F)F)cc1)cn2C [Compound 51, N-(1-Methyl-3-(4-(trifluoromethyl)phenyl)-1H-pyrrolo[2,3-b]pyridin-5-yl)acrylamide] | – | ≤ 0.1 | 1 to 10
18 | C=CC(=O)Nc1ccc2c(c1)c(/C=C/c1ccc(Cl)cc1)cn2CC [Compound 26, (E)-N-(3-(4-Chlorostyryl)-1-ethyl-1H-indol-5-yl)acrylamide] | – | 0.1 to 1 | 0.1 to 1
19 | C=CC(=O)Nc1ccc2c(c1)c(C1CCC(C)(C)CC1)cn2C [Example 122, N-(3-(4,4-dimethylcyclohexyl)-1-methyl-1H-indol-5-yl)acrylamide] | – | 0.1 to 1 | ≤ 0.1
20 | C=CC(=O)Nc1cc(F)c2c(c1)c(/C=C/C1CCC(F)(F)CC1)cn2C [Compound 36, (E)-N-(3-(2-(4,4-Difluorocyclohexyl)vinyl)-7-fluoro-1-methyl-1H-indol-5-yl)acrylamide] | – | ≤ 0.1 | 0.1 to 1
21 | C=CC(=O)Nc1ccc2c(c1)c(/C=C/C1CCC(F)(F)CC1)cn2C(C)C [Compound 27, (E)-N-(3-(2-(4,4-Difluorocyclohexyl)vinyl)-1-isopropyl-1H-indol-5-yl)acrylamide] | – | 0.1 to 1 | 0.1 to 1
22 | C=CC(=O)Nc1cnc2c(c1)c(/C=C/c1ccc(Cl)cc1)cn2C(F)F [Example 128, (E)-N-(3-(4-Chlorostyryl)-1-(difluoromethyl)-1H-pyrrolo[2,3-b]pyridin-5-yl)acrylamide] | 0.1 to 1 | 0.1 to 1 | –
23 | C=CC(=O)Nc1cnc2c(c1)c(/C=C/C1CCC(F)(F)CC1)cn2CC [Compound 17, (E)-N-(3-(2-(4,4-Difluorocyclohexyl)vinyl)-1-ethyl-1H-pyrrolo[2,3-b]pyridin-5-yl)acrylamide] | ≤ 0.1 | 0.1 to 1 | –
24 | C=C(F)C(=O)Nc1cnc2c(c1)c(/C=C/c1ccc(Cl)cc1)cn2C [Example 118, (E)-N-(3-(4-Chlorostyryl)-1-methyl-1H-pyrrolo[2,3-b]pyridin-5-yl)-2-fluoroacrylamide] | – | ≤ 0.1 | 1 to 10
25 | C=CC(=O)Nc1cnc2c(c1)c(/C=C/c1ccc(Cl)cc1)cn2C1CCCC1 [Compound 10, (E)-N-(3-(4-Chlorostyryl)-1-cyclopentyl-1H-pyrrolo[2,3-b]pyridin-5-yl)acrylamide] | – | 0.1 to 1 | 1 to 10
26 | C=CC(=O)Nc1ccc2c(c1)c(/C=C/C1CCC(F)(F)CC1)nn2C(C)C [Compound 5, (E)-N-(3-(2-(4,4-Difluorocyclohexyl)vinyl)-1-isopropyl-1H-indazol-5-yl)acrylamide] | – | 0.1 to 1 | 0.1 to 1
27 | C=CC(=O)Nc1cnc2c(c1)c(-c1ccc3ccccc3c1)cn2C [Example 107, N-(1-Methyl-3-(naphthalen-2-yl)-1H-pyrrolo[2,3-b]pyridin-5-yl)acrylamide] | – | ≤ 0.1 | ≤ 0.1
28 | C=CC(=O)Nc1ccc2c(c1)c(C1=CCC(F)(F)CC1)cn2C [Compound 23, N-(3-(4,4-Difluorocyclohex-1-en-1-yl)-1-methyl-1H-indol-5-yl)acrylamide] | – | 0.1 to 1 | ≤ 0.1
29 | C=CC(=O)Nc1cnc2c(c1)c(/C=C/c1ccc(Cl)cc1)nn2CC [Compound 33, (E)-N-(3-(4-Chlorostyryl)-1-ethyl-1H-pyrazolo[3,4-b]pyridin-5-yl)acrylamide] | – | ≤ 0.1 | 1 to 10
30 | C=CC(=O)Nc1cnc2c(c1)c(/C=C/c1ccc(Cl)s1)cn2C [Example 81, (E)-N-(3-(2-(5-Chlorothiophen-2-yl)vinyl)-1-methyl-1H-pyrrolo[2,3-b]pyridin-5-yl)acrylamide] | – | ≤ 0.1 | 0.1 to 1
